According to US7517874B2 (priority 2007, dated 2009):
Like-named read-outs stand apart in the source and are kept apart here.

How the values were obtained:
[1] = biological target: human CB1 receptor (hCB1) (Homo sapiens, UniProt P21554); experiment: cell-based; type: cell-based; details: for +/− HCB1: agonist or inverse agonist at hCB1
Summary of the method: (§1)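 Agonism or inverse agonism was assessed as change in intracellular cAMP in CHO-K1 cells expressing human CB1 or rat CB2 (genomic DNA, pcDNA3.1).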

[2] = biological target: T1, rat CB2 receptor (rCB2) (Rattus norvegicus, UniProt Q9QZN9); experiment: cell-based; type: cell-based; details: for +/− RCB2: agonist or inverse agonist at rCB2
T1 sequence (Q9QZN9 1-360): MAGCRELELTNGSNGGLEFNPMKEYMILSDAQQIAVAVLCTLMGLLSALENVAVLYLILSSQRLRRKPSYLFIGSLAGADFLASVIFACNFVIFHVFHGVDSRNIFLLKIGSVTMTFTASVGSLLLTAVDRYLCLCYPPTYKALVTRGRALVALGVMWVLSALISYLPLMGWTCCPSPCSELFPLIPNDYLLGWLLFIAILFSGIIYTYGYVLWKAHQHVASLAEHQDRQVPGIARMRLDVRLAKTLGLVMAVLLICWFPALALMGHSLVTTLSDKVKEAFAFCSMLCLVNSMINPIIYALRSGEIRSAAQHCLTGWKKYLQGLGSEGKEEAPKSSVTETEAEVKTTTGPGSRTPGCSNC
Summary of the method: as §1

[3] = groups >100 nM-10 μM and >10 μM, cAMP, CHO-K1 hCB1, read-out: EC50 HCB1

Chain of human CB1 receptor (hCB1) (P21554 whole entry): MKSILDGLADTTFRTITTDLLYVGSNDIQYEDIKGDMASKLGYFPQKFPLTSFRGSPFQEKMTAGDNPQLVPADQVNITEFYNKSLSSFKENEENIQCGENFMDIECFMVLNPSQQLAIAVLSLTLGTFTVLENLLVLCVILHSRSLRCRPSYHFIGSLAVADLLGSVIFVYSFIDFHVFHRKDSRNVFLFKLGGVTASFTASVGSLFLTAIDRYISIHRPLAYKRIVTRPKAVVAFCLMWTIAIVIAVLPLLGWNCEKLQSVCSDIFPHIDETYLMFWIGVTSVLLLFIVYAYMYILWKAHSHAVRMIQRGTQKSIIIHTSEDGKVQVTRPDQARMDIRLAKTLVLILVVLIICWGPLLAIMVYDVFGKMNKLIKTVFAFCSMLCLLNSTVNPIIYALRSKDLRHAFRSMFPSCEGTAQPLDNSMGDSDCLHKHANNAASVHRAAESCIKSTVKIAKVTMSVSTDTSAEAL

Structure (SMILES)	EC50 [1]	+/− RCB2 [2]	EC50 [2]	+/− HCB1 [1]	EC50 [1, 3]
CC(C)(C)[C@@H](CO)NC(=O)c1nc(-c2ccccc2)n2c1CNCC2 [Compound 22, (S)-N-(1-hydroxy-3,3-dimethylbutan-2-yl)-3-phenyl-5,6,7,8-tetrahydroimidazo[1,5-a]pyrazine-1-carboxamide]	> 10000 nM	−			
CNC(=O)[C@@H](NC(=O)c1nc(-c2cccc(C(F)(F)F)c2)n2c1CNCC2)C(C)(C)C [Compound 3, (S)-N-(3,3-dimethyl-1-(methylamino)-1-oxobutan-2-yl)-3-(3-(trifluoromethyl)phenyl)-5,6,7,8-tetrahydroimidazo[1,5-a]pyrazine-1-carboxamide]	> 10000 nM	−			
CNC(=O)[C@@H](NC(=O)c1nc(-c2cc(C)ccc2Cl)n2c1CN(C)CCC2)C(C)(C)C [Compound 335, (S)-3-(2-chloro-5-methylphenyl)-N-(3,3-dimethyl-1-(methylamino)-1-oxobutan-2-yl)-8-methyl-6,7,8,9-tetrahydro-5H-imidazo[1,5-a][1,4]diazepine-1-carboxamide]	> 10000 nM		> 10 µM		
CNC(=O)[C@@H](NC(=O)c1nc(/C=C/Cc2ccccc2)n2c1CN(C)CCC2)C(C)(C)C [Compound 458, (S,E)-N-(3,3-dimethyl-1-(methylamino)-1-oxobutan-2-yl)-8-methyl-3-(3-phenylprop-1-enyl)-6,7,8,9-tetrahydro-5H-imidazo[1,5-a][1,4]diazepine-1-carboxamide]		−		+	
CNC(=O)[C@@H](NC(=O)c1nc(-c2ccco2)n2c1CNCC2)C(C)(C)C [Compound 15, (S)-N-(3,3-dimethyl-1-(methylamino)-1-oxobutan-2-yl)-3-(furan-2-yl)-5,6,7,8-tetrahydroimidazo[1,5-a]pyrazine-1-carboxamide]	> 10000 nM	+			
CNC(=O)[C@@H](NC(=O)c1nc(-c2ccc(C(N)=O)cc2)n2c1CN(C)CCC2)C(C)(C)C [Compound 423, (S)-3-(4-carbamoylphenyl)-N-(3,3-dimethyl-1-(methylamino)-1-oxobutan-2-yl)-8-methyl-6,7,8,9-tetrahydro-5H-imidazo[1,5-a][1,4]diazepine-1-carboxamide]	> 10000 nM		> 10 µM		
CC(C)CN1CCn2c(-c3ccccc3)nc(C(=O)N[C@@H](CO)C(C)(C)C)c2C1 [Compound 68, (R)-N-(1-hydroxy-3,3-dimethylbutan-2-yl)-7-isobutyl-3-phenyl-5,6,7,8-tetrahydroimidazo[1,5-a]pyrazine-1-carboxamide]	> 10000 nM	−			
CC12CCC(C1)C(C)(C)C2NC(=O)c1nc(-c2ccccc2)n2c1CN(C(=O)C1CC1)CC2 (centres unmarked) [Compound 119, 7-(cyclopropanecarbonyl)-3-phenyl-N-(1,3,3-trimethyl-bicyclo [2.2.1]heptan-2-yl)-5,6,7,8-tetrahydroimidazo[1,5-a]pyrazine-1-carboxamide]	> 10000 nM	−			
CNC(=O)[C@H](CC(C)C)NC(=O)c1nc(-c2ccccc2)n2c1CN(C)CC2 [Compound 275, (S)-7-methyl-N-(4-methyl-1-(methylamino)-1-oxopentan-2-yl)-3-phenyl-5,6,7,8-tetrahydroimidazo[1,5-a]pyrazine-1-carboxamide]	> 10000 nM	+			
CNC(=O)[C@@H](NC(=O)c1nc(-c2ccc(F)c(OC)c2)n2c1CN(C)CCC2)C(C)(C)C [Compound 393, (S)-N-(3,3-dimethyl-1-(methylamino)-1-oxobutan-2-yl)-3-(4-fluoro-3-methoxyphenyl)-8-methyl-6,7,8,9-tetrahydro-5H-imidazo[1,5-a][1,4]diazepine-1-carboxamide]	> 10000 nM	+			
CNC(=O)[C@@H](NC(=O)c1nc(-c2cc(F)cc(F)c2)n2c1CN(C)CC2)C(C)(C)C [Compound 262, (S)-3-(3,5-difluorophenyl)-N-(3,3-dimethyl-1-(methylamino)-1-oxobutan-2-yl)-7-methyl-5,6,7,8-tetrahydroimidazo[1,5-a]pyrazine-1-carboxamide]	> 10000 nM	+			
CNC(=O)[C@@H](NC(=O)c1nc(Cl)n2c1CN(C)CCC2)C(C)(C)C [Compound 598, (S)-3-chloro-N-(3,3-dimethyl-1-(methylamino)-1-oxobutan-2-yl)-8-methyl-6,7,8,9-tetrahydro-5H-imidazo[1,5-a][1,4]diazepine-1-carboxamide]	> 10000 nM	+			
CNC(=O)[C@@H](NC(=O)c1nc(-c2ccccc2)n2c1CN(CC1CC1)CCC2)C(C)(C)C [Compound 321, (S)-8-(cyclopropylmethyl)-N-(3,3-dimethyl-1-(methylamino)-1-oxobutan-2-yl)-3-phenyl-6,7,8,9-tetrahydro-5H-imidazo[1,5-a][1,4]diazepine-1-carboxamide]	> 10000 nM	−			
CC(C)CCNC(=O)c1nc(-c2ccc(Cl)cc2)n2c1CN(C(=O)OC(C)(C)C)CC2 [Compound 33, tert-butyl 3-(4-chlorophenyl)-1-(isopentylcarbamoyl)-5,6-dihydroimidazo[1,5-a]pyrazine-7(8H)-carboxylate]		−			> 10000 nM
CNC(=O)[C@@H](NC(=O)c1nc(-c2ccc(C3CC(=O)NN3)cc2)n2c1CN(C)CCC2)C(C)(C)C (stereo partly drawn) [Compound 428, N-((S)-3,3-dimethyl-1-(methylamino)-1-oxobutan-2-yl)-8-methyl-3-(4-(5-oxopyrazolidin-3-yl)phenyl)-6,7,8,9-tetrahydro-5H-imidazo[1,5-a][1,4]diazepine-1-carboxamide]	> 10000 nM		> 10 µM		
COC(=O)N1CCn2c(-c3ccccc3)nc(C(=O)N[C@H](C)C3CCCCC3)c2C1 [Compound 185, (R)-methyl 1-(1-cyclohexylethylcarbamoyl)-3-phenyl-5,6-dihydroimidazo[1,5-a]pyrazine-7(8H)-carboxylate]	> 10000 nM	−			
CNC(=O)[C@@H](NC(=O)c1nc(CCCOC)n2c1CN(C)CCC2)C(C)(C)C [Compound 489, (S)-N-(3,3-dimethyl-1-(methylamino)-1-oxobutan-2-yl)-3-(3-methoxypropyl)-8-methyl-6,7,8,9-tetrahydro-5H-imidazo[1,5-a][1,4]diazepine-1-carboxamide]	> 10000 nM	+			
CNC(=O)[C@@H](NC(=O)c1nc(-c2ccc(Cl)cc2)n2c1CN(C)CC2)C(C)(C)C [Compound 49, (S)-3-(4-chlorophenyl)-N-(3,3-dimethyl-1-(methylamino)-1-oxobutan-2-yl)-7-methyl-5,6,7,8-tetrahydroimidazo[1,5-a]pyrazine-1-carboxamide]	> 10000 nM	−			
CNC(=O)[C@@H](NC(=O)c1nc(-c2ccccc2)n2c1CN(S(=O)(=O)C1CC1)CC2)C(C)(C)C [Compound 100, (S)-7-(cyclopropylsulfonyl)-N-(3,3-dimethyl-1-(methylamino)-1-oxobutan-2-yl)-3-phenyl-5,6,7,8-tetrahydroimidazo[1,5-a]pyrazine-1-carboxamide]	> 10000 nM	−			
CC(C)(C)OC(=O)N1CCn2c(-c3ccccc3)nc(C(=O)NC3CCCCC3)c2C1 [Compound 36, tert-butyl 1-(cyclohexylcarbamoyl)-3-phenyl-5,6-dihydroimidazo[1,5-a]pyrazine-7(8H)-carboxylate]	> 10000 nM	−			
CN1CCn2c(-c3ccccc3)nc(C(=O)N[C@H](CO)C(C)(C)C)c2C1 [Compound 59, (S)-N-(1-hydroxy-3,3-dimethylbutan-2-yl)-7-methyl-3-phenyl-5,6,7,8-tetrahydroimidazo[1,5-a]pyrazine-1-carboxamide]	> 10000 nM		> 10 µM		
CN1CCCn2c(-c3ccc(Cl)cc3F)nc(C(=O)N[C@H](C(=O)N(C)C)C(C)(C)C)c2C1 [Compound 556, (S)-3-(4-chloro-2-fluorophenyl)-N-(1-(dimethylamino)-3,3-dimethyl-1-oxobutan-2-yl)-8-methyl-6,7,8,9-tetrahydro-5H-imidazo[1,5-a][1,4]diazepine-1-carboxamide]			> 10 µM	+	
CNC(=O)[C@@H](NC(=O)c1nc(-c2cccc(-c3nnc(C)o3)c2)n2c1CN(C)CCC2)C(C)(C)C [Compound 407, (S)-N-(3,3-dimethyl-1-(methylamino)-1-oxobutan-2-yl)-8-methyl-3-(3-(5-methyl-1,3,4-oxadiazol-2-yl)phenyl)-6,7,8,9-tetrahydro-5H-imidazo[1,5-a][1,4]diazepine-1-carboxamide]	> 10000 nM		> 10 µM		
COC(=O)N1CCn2c(-c3ccc(Cl)cc3)nc(C(=O)N[C@H](CO)C(C)(C)C)c2C1 [Compound 184, (S)-methyl 3-(4-chlorophenyl)-1-(1-hydroxy-3,3-dimethylbutan-2-ylcarbamoyl)-5,6-dihydroimidazo[1,5-a]pyrazine-7(8H)-carboxylate]	> 10000 nM	−			
O=C(NCC1CCOCC1)c1nc(-c2ccccc2)n2c1CN(C(=O)C1CC1)CC2 [Compound 134, 7-(cyclopropanecarbonyl)-3-phenyl-N-((tetrahydro-2H-pyran-4-yl)methyl)-5,6,7,8-tetrahydroimidazo[1,5-a]pyrazine-1-carboxamide]		−			> 10000 nM
